Patent US5840684A, “Glycopeptide antibiotic derivatives” (Eli Lilly and Company, priority 1995, dated 1998)
Values after ≈ are worked out from the molar mass of the structure shown.

Key:
[1] = system: Staphylococcus aureus S13E; type: cell-based
Method: (§1) The MIC's were determined using a standard broth micro-dilution assay.

[2] = system: Staphylococcus aureus SA1199B; type: cell-based
Method: as §1

[3] = system: Entercoccus faecium 180-1; test: broth micro-dilution MIC; type: cell-based
Method: as §1

[4] = system: Entercoccus faecium 276; test: broth micro-dilution MIC; type: cell-based
Method: as §1

[5] = system: Staphylococcus aureus 446; test: broth micro-dilution MIC; type: cell-based
Method: as §1

[6] = system: Staphylococcus aureus 447; test: broth micro-dilution MIC; type: cell-based
Method: as §1

[7] = system: Staphylococcus aureus 489; test: broth micro-dilution MIC; type: cell-based
Method: as §1

[8] = system: Staphylococcus aureus 491; test: broth micro-dilution MIC; type: cell-based
Method: as §1

[9] = system: Staphylococcus aureus SA1199A; test: broth micro-dilution MIC; type: cell-based
Method: as §1

[10] = system: Staphylococcus aureus SA1199; test: broth micro-dilution MIC; type: cell-based
Method: as §1

[11] = system: Staphylococcus aureus X400; test: broth micro-dilution MIC; type: cell-based
Method: as §1

[12] = system: Staphylococcus aureus X778; test: broth micro-dilution MIC; type: cell-based
Method: as §1

[13] = system: Streptococcus pyogenes C203; test: broth micro-dilution MIC; type: cell-based
Method: as §1

[14] = system: Entercoccus faecium 180; test: broth micro-dilution MIC; type: cell-based; details: Entercoccus faecium 180
Method: (§2) The formula I compounds have in vitro and in vivo activity against Gram-positive pathogenic bacteria. The MIC's were determined using a standard broth micro-dilution assay.

[15] = system: Entercoccus faecium 2041; test: broth micro-dilution MIC; type: cell-based; details: Entercoccus faecium 2041
Method: as §2

[16] = system: Enterococcus gallinarum 245; test: broth micro-dilution MIC; type: cell-based; details: Enterococcus gallinarum 245
Method: as §2

[17] = system: Escherichia coli EC14; test: broth micro-dilution MIC; type: cell-based
Method: as §2

[18] = system: Haemophilus influenzae RD; test: broth micro-dilution MIC; type: cell-based; details: Haemophilus influenzae RD
Method: as §2

[19] = system: Staphylococcus epidermidis 270; test: broth micro-dilution MIC; type: cell-based
Method: as §2

[20] = system: Staphylococcus haemolyticus 105; test: broth micro-dilution MIC; type: cell-based
Method: as §2

[21] = system: Staphylococcus haemolyticus 415; test: broth micro-dilution MIC; type: cell-based
Method: as §2

[22] = system: Streptococcus pneumoniae P1; test: broth micro-dilution MIC; type: cell-based
Method: as §2

[23] = system: vancomycin-resistant enterococci; test: broth micro-dilution, mean geometric MIC; type: cell-based, Enterococcus faecium and Enterococcus faecalis; details: enterococci, 24-hour incubation
[24] = system: vancomycin-susceptible enterococci; test: broth micro-dilution, mean geometric MIC; type: cell-based, Enterococcus faecium and Enterococcus faecalis; details: enterococci, 24-hour incubation

Structure (SMILES) | MIC [1] [mg/L] | MIC [2] [mg/L] | MIC [3] [mg/L] | MIC [4] [mg/L] | MIC [5] [mg/L] | MIC [6] [mg/L] | MIC [7] [mg/L] | MIC [8] [mg/L] | MIC [9] [mg/L] | MIC [10] [mg/L] | MIC [11] [mg/L] | MIC [12] [mg/L] | MIC [13] [mg/L] | MIC [14] [mg/L] | MIC [15] [mg/L] | MIC [16] [mg/L] | MIC [17] [mg/L] | MIC [18] [mg/L] | MIC [19] [mg/L] | MIC [20] [mg/L] | further results
CNC(CC(C)C)C(=O)NC1C(=O)NC(CC(N)=O)C(=O)NC2C(=O)NC3C(=O)NC(C(=O)NC(C(=O)O)c4cc(O)cc(O)c4-c4cc3ccc4O)C(OC3CC(C)(NCc4ccc(SC)cc4)C(O)C(C)O3)c3ccc(c(Cl)c3)Oc3cc2cc(c3OC2OC(CO)C(O)C(O)C2OC2CC(C)(NCc3ccc(SC)cc3)C(O)C(C)O2)Oc2ccc(cc2Cl)C1O (stereo not drawn) [Compound 278] | 1 (≈ 0.536 µM) | 0.5 (≈ 0.268 µM) | ≤ 0.06 | 0.25 (≈ 0.134 µM) | 1 (≈ 0.536 µM) | 2 (≈ 1.07 µM) | 0.5 (≈ 0.268 µM) | 1 (≈ 0.536 µM) | 1 (≈ 0.536 µM) | 0.25 (≈ 0.134 µM) | 0.25 (≈ 0.134 µM) | 0.5 (≈ 0.268 µM) | ≤ 0.06 | 1 (≈ 0.536 µM) | 0.125 (≈ 0.067 µM) | 2 (≈ 1.07 µM) | > 64 | > 64 | 1 (≈ 0.536 µM) | 0.5 (≈ 0.268 µM) | MIC [21]: 2 mg/L (≈ 1.07 µM); MIC [22]: ≤ 0.06 mg/L; mean geometric MIC, Vancomycin Resistant Strains [23]: 8 mg/L; mean geometric MIC, Vancomycin Sensitive Strains [24]: 0.29 mg/L
CC(C)CC(C(=O)NC1C(=O)NC(CC(N)=O)C(=O)NC2C(=O)NC3C(=O)NC(C(=O)NC(C(=O)O)c4cc(O)cc(O)c4-c4cc3ccc4O)C(OC3CC(C)(N)C(O)C(C)O3)c3ccc(c(Cl)c3)Oc3cc2cc(c3OC2OC(CO)C(O)C(O)C2OC2CC(C)(NCc3cccnc3)C(O)C(C)O2)Oc2ccc(cc2Cl)C1O)N(C)Cc1cccnc1 (stereo not drawn) [Compound 280] | 2 (≈ 1.13 µM) | 0.5 (≈ 0.282 µM) | 0.25 (≈ 0.141 µM) | 0.5 (≈ 0.282 µM) | 2 (≈ 1.13 µM) | 8 (≈ 4.51 µM) | 1 (≈ 0.563 µM) | 2 (≈ 1.13 µM) | 0.5 (≈ 0.282 µM) | 2 (≈ 1.13 µM) | 1 (≈ 0.563 µM) | 0.5 (≈ 0.282 µM) | 0.125 (≈ 0.0704 µM) | 32 (≈ 18 µM) | 1 (≈ 0.563 µM) | 32 (≈ 18 µM) | > 64 | > 64 | 8 (≈ 4.51 µM) | > 64 | MIC [21]: 32 mg/L (≈ 18 µM); MIC [22]: 0.125 mg/L (≈ 0.0704 µM); mean geometric MIC, Vancomycin Resistant Strains [23]: > 128 mg/L; mean geometric MIC, Vancomycin Sensitive Strains [24]: 7 mg/L
CC(C)CC(C(=O)NC1C(=O)NC(CC(N)=O)C(=O)NC2C(=O)NC3C(=O)NC(C(=O)NC(C(=O)O)c4cc(O)cc(O)c4-c4cc3ccc4O)C(OC3CC(C)(N)C(O)C(C)O3)c3ccc(c(Cl)c3)Oc3cc2cc(c3OC2OC(CO)C(O)C(O)C2OC2CC(C)(NCc3ccccn3)C(O)C(C)O2)Oc2ccc(cc2Cl)C1O)N(C)Cc1ccccn1 (stereo not drawn) [Compound 281] | 32 (≈ 18 µM) | 32 (≈ 18 µM) | 4 (≈ 2.25 µM) | 8 (≈ 4.51 µM) | 64 (≈ 36.1 µM) | > 64 | 32 (≈ 18 µM) | > 64 | 4 (≈ 2.25 µM) | > 64 | > 64 | 16 (≈ 9.02 µM) | 0.5 (≈ 0.282 µM) | > 64 | 8 (≈ 4.51 µM) | > 64 | > 64 | > 64 | > 64 | > 64 | MIC [21]: > 64 mg/L; MIC [22]: ≤ 0.06 mg/L; mean geometric MIC, Vancomycin Resistant Strains [23]: > 128 mg/L; mean geometric MIC, Vancomycin Sensitive Strains [24]: 37 mg/L
